According to ChEMBL document CHEMBL3046289, “Synthesis and in vitro antimicrobial activity of some newer quinazolinonesulfonamide linked hybrid heterocyclic entities derived from glycine” (2013):
Converted amounts (≈) assume the structure as drawn.

Columns and labels:
Assay type in all cases: functional
[1] = tested on: Escherichia coli; assay: Antibacterial activity against Escherichia coli MTCC 443 assessed as growth inhibition after 24 hr by broth microdilution method; conditions: MTCC 443, 24 h
[2] = tested on: Staphylococcus aureus; assay: Antibacterial activity against Staphylococcus aureus MTCC 2940 assessed as growth inhibition after 24 hr by broth microdilution method; conditions: MTCC 2940, 24 h
[3] = tested on: Aspergillus niger; assay: Antifungal activity against Aspergillus niger MTCC 282 assessed as growth inhibition after 48 hr by broth microdilution method; conditions: MTCC 282, 48 h
[4] = tested on: Pseudomonas aeruginosa; assay: Antibacterial activity against Pseudomonas aeruginosa MTCC 1688 assessed as growth inhibition after 24 hr by broth microdilution method; conditions: MTCC 1688, 24 h
[5] = tested on: Candida albicans; assay: Antifungal activity against Candida albicans MTCC 227 assessed as growth inhibition after 48 hr by broth microdilution method; conditions: MTCC 227, 48 h
[6] = tested on: Bacillus cereus; assay: Antibacterial activity against Bacillus cereus MTCC 1305 assessed as growth inhibition after 24 hr by broth microdilution method; conditions: MTCC 1305, 24 h
[7] = tested on: Klebsiella pneumoniae; assay: Antibacterial activity against Klebsiella pneumoniae MTCC 139 assessed as growth inhibition after 24 hr by broth microdilution method; conditions: MTCC 139, 24 h

| MIC [1] | MIC [2] | MIC [3] | MIC [4] | MIC [5] | MIC [6] | MIC [7] | SMILES |
| --- | --- | --- | --- | --- | --- | --- | --- |
| 80 µg/mL (≈ 171 µM) | 85 µg/mL (≈ 182 µM) | 70 µg/mL (≈ 150 µM) | 95 µg/mL (≈ 204 µM) | 85 µg/mL (≈ 182 µM) | 105 µg/mL (≈ 225 µM) | 95 µg/mL (≈ 204 µM) | CC(=O)Nc1ccc(S(=O)(=O)NCc2nc3ccccc3c(=O)n2-c2ccccc2F)cc1 |
| 75 µg/mL (≈ 161 µM) | 80 µg/mL (≈ 171 µM) | 55 µg/mL (≈ 118 µM) | 85 µg/mL (≈ 182 µM) | 80 µg/mL (≈ 171 µM) | 95 µg/mL (≈ 204 µM) | 95 µg/mL (≈ 204 µM) | CC(=O)Nc1ccc(S(=O)(=O)NCc2nc3ccccc3c(=O)n2-c2ccc(F)cc2)cc1 |
| 90 µg/mL (≈ 214 µM) | 100 µg/mL (≈ 237 µM) | 105 µg/mL (≈ 249 µM) | 95 µg/mL (≈ 225 µM) | 115 µg/mL (≈ 273 µM) | 105 µg/mL (≈ 249 µM) | 115 µg/mL (≈ 273 µM) | Nc1ccc(S(=O)(=O)NCc2nc3ccccc3c(=O)n2Nc2ccccc2)cc1 |
| 115 µg/mL (≈ 248 µM) | 100 µg/mL (≈ 216 µM) | 105 µg/mL (≈ 227 µM) | 125 µg/mL (≈ 270 µM) | 120 µg/mL (≈ 259 µM) | 130 µg/mL (≈ 280 µM) | 145 µg/mL (≈ 313 µM) | CC(=O)Nc1ccc(S(=O)(=O)NCc2nc3ccccc3c(=O)n2Nc2ccccc2)cc1 |
| 75 µg/mL (≈ 157 µM) | 85 µg/mL (≈ 178 µM) | 65 µg/mL (≈ 136 µM) | 100 µg/mL (≈ 209 µM) | 70 µg/mL (≈ 146 µM) | 90 µg/mL (≈ 188 µM) | 110 µg/mL (≈ 230 µM) | COc1cccc(-n2c(CNS(=O)(=O)c3ccc(NC(C)=O)cc3)nc3ccccc3c2=O)c1 |
| 50 µg/mL (≈ 104 µM) | 55 µg/mL (≈ 115 µM) | 40 µg/mL (≈ 83.6 µM) | 90 µg/mL (≈ 188 µM) | 50 µg/mL (≈ 104 µM) | 65 µg/mL (≈ 136 µM) | 100 µg/mL (≈ 209 µM) | COc1ccc(-n2c(CNS(=O)(=O)c3ccc(NC(C)=O)cc3)nc3ccccc3c2=O)cc1 |
| 70 µg/mL (≈ 155 µM) | 75 µg/mL (≈ 166 µM) | 55 µg/mL (≈ 122 µM) | 75 µg/mL (≈ 166 µM) | 65 µg/mL (≈ 144 µM) | 85 µg/mL (≈ 188 µM) | 95 µg/mL (≈ 210 µM) | Nc1ccc(S(=O)(=O)NCc2nc3ccccc3c(=O)n2-c2ccccc2[N+](=O)[O-])cc1 |
| 60 µg/mL (≈ 133 µM) | 70 µg/mL (≈ 155 µM) | 50 µg/mL (≈ 111 µM) | 65 µg/mL (≈ 144 µM) | 60 µg/mL (≈ 133 µM) | 85 µg/mL (≈ 188 µM) | 90 µg/mL (≈ 199 µM) | Nc1ccc(S(=O)(=O)NCc2nc3ccccc3c(=O)n2-c2cccc([N+](=O)[O-])c2)cc1 |
| 55 µg/mL (≈ 122 µM) | 65 µg/mL (≈ 144 µM) | 45 µg/mL (≈ 99.7 µM) | 60 µg/mL (≈ 133 µM) | 55 µg/mL (≈ 122 µM) | 75 µg/mL (≈ 166 µM) | 75 µg/mL (≈ 166 µM) | Nc1ccc(S(=O)(=O)NCc2nc3ccccc3c(=O)n2-c2ccc([N+](=O)[O-])cc2)cc1 |
| 75 µg/mL (≈ 152 µM) | 85 µg/mL (≈ 172 µM) | 65 µg/mL (≈ 132 µM) | 100 µg/mL (≈ 203 µM) | 80 µg/mL (≈ 162 µM) | 90 µg/mL (≈ 182 µM) | 115 µg/mL (≈ 233 µM) | CC(=O)Nc1ccc(S(=O)(=O)NCc2nc3ccccc3c(=O)n2-c2ccccc2[N+](=O)[O-])cc1 |
| 70 µg/mL (≈ 142 µM) | 80 µg/mL (≈ 162 µM) | 60 µg/mL (≈ 122 µM) | 95 µg/mL (≈ 193 µM) | 75 µg/mL (≈ 152 µM) | 80 µg/mL (≈ 162 µM) | 110 µg/mL (≈ 223 µM) | CC(=O)Nc1ccc(S(=O)(=O)NCc2nc3ccccc3c(=O)n2-c2cccc([N+](=O)[O-])c2)cc1 |
| 70 µg/mL (≈ 142 µM) | 80 µg/mL (≈ 162 µM) | 55 µg/mL (≈ 111 µM) | 90 µg/mL (≈ 182 µM) | 70 µg/mL (≈ 142 µM) | 85 µg/mL (≈ 172 µM) | 105 µg/mL (≈ 213 µM) | CC(=O)Nc1ccc(S(=O)(=O)NCc2nc3ccccc3c(=O)n2-c2ccc([N+](=O)[O-])cc2)cc1 |
| 70 µg/mL (≈ 145 µM) | 70 µg/mL (≈ 145 µM) | 60 µg/mL (≈ 124 µM) | 75 µg/mL (≈ 155 µM) | 75 µg/mL (≈ 155 µM) | 100 µg/mL (≈ 207 µM) | 100 µg/mL (≈ 207 µM) | CC(=O)Nc1ccc(S(=O)(=O)NCc2nc3ccccc3c(=O)n2-c2ccccc2Cl)cc1 |
| 60 µg/mL (≈ 124 µM) | 65 µg/mL (≈ 135 µM) | 55 µg/mL (≈ 114 µM) | 70 µg/mL (≈ 145 µM) | 70 µg/mL (≈ 145 µM) | 95 µg/mL (≈ 197 µM) | 105 µg/mL (≈ 217 µM) | CC(=O)Nc1ccc(S(=O)(=O)NCc2nc3ccccc3c(=O)n2-c2cccc(Cl)c2)cc1 |
| 60 µg/mL (≈ 124 µM) | 60 µg/mL (≈ 124 µM) | 55 µg/mL (≈ 114 µM) | 65 µg/mL (≈ 135 µM) | 65 µg/mL (≈ 135 µM) | 90 µg/mL (≈ 186 µM) | 85 µg/mL (≈ 176 µM) | CC(=O)Nc1ccc(S(=O)(=O)NCc2nc3ccccc3c(=O)n2-c2ccc(Cl)cc2)cc1 |
| 65 µg/mL (≈ 123 µM) | 70 µg/mL (≈ 133 µM) | 60 µg/mL (≈ 114 µM) | 75 µg/mL (≈ 142 µM) | 70 µg/mL (≈ 133 µM) | 95 µg/mL (≈ 180 µM) | 95 µg/mL (≈ 180 µM) | CC(=O)Nc1ccc(S(=O)(=O)NCc2nc3ccccc3c(=O)n2-c2ccccc2Br)cc1 |
| 70 µg/mL (≈ 133 µM) | 65 µg/mL (≈ 123 µM) | 55 µg/mL (≈ 104 µM) | 70 µg/mL (≈ 133 µM) | 70 µg/mL (≈ 133 µM) | 90 µg/mL (≈ 171 µM) | 90 µg/mL (≈ 171 µM) | CC(=O)Nc1ccc(S(=O)(=O)NCc2nc3ccccc3c(=O)n2-c2cccc(Br)c2)cc1 |
| 65 µg/mL (≈ 123 µM) | 60 µg/mL (≈ 114 µM) | 50 µg/mL (≈ 94.8 µM) | 65 µg/mL (≈ 123 µM) | 60 µg/mL (≈ 114 µM) | 95 µg/mL (≈ 180 µM) | 90 µg/mL (≈ 171 µM) | CC(=O)Nc1ccc(S(=O)(=O)NCc2nc3ccccc3c(=O)n2-c2ccc(Br)cc2)cc1 |
| 80 µg/mL (≈ 167 µM) | 90 µg/mL (≈ 188 µM) | 70 µg/mL (≈ 146 µM) | 110 µg/mL (≈ 230 µM) | 80 µg/mL (≈ 167 µM) | 95 µg/mL (≈ 199 µM) | 105 µg/mL (≈ 219 µM) | COc1ccccc1-n1c(CNS(=O)(=O)c2ccc(NC(C)=O)cc2)nc2ccccc2c1=O |

| SMILES | MIC [1] | MIC [2] | MIC [3] | MIC [4] | MIC [5] | MIC [6] | MIC [7] |
| --- | --- | --- | --- | --- | --- | --- | --- |
| Nc1ccc(S(=O)(=O)NCc2nc3ccccc3c(=O)n2-c2ccccc2Br)cc1 | 55 µg/mL (≈ 113 µM) | 55 µg/mL (≈ 113 µM) | 45 µg/mL (≈ 92.7 µM) | 65 µg/mL (≈ 134 µM) | 55 µg/mL (≈ 113 µM) | 70 µg/mL (≈ 144 µM) | 85 µg/mL (≈ 175 µM) |
| Nc1ccc(S(=O)(=O)NCc2nc3ccccc3c(=O)n2-c2ccccc2F)cc1 | 65 µg/mL (≈ 153 µM) | 65 µg/mL (≈ 153 µM) | 55 µg/mL (≈ 130 µM) | 70 µg/mL (≈ 165 µM) | 65 µg/mL (≈ 153 µM) | 90 µg/mL (≈ 212 µM) | 95 µg/mL (≈ 224 µM) |
| Nc1ccc(S(=O)(=O)NCc2nc3ccccc3c(=O)n2-c2ccc(F)cc2)cc1 | 55 µg/mL (≈ 130 µM) | 60 µg/mL (≈ 141 µM) | 45 µg/mL (≈ 106 µM) | 65 µg/mL (≈ 153 µM) | 60 µg/mL (≈ 141 µM) | 55 µg/mL (≈ 130 µM) | 85 µg/mL (≈ 200 µM) |
| Nc1ccc(S(=O)(=O)NCc2nc3ccccc3c(=O)n2-c2ccccc2Cl)cc1 | 55 µg/mL (≈ 125 µM) | 60 µg/mL (≈ 136 µM) | 50 µg/mL (≈ 113 µM) | 60 µg/mL (≈ 136 µM) | 60 µg/mL (≈ 136 µM) | 90 µg/mL (≈ 204 µM) | 90 µg/mL (≈ 204 µM) |
| Nc1ccc(S(=O)(=O)NCc2nc3ccccc3c(=O)n2-c2cccc(Cl)c2)cc1 | 50 µg/mL (≈ 113 µM) | 55 µg/mL (≈ 125 µM) | 50 µg/mL (≈ 113 µM) | 55 µg/mL (≈ 125 µM) | 55 µg/mL (≈ 125 µM) | 65 µg/mL (≈ 147 µM) | 80 µg/mL (≈ 181 µM) |
| Nc1ccc(S(=O)(=O)NCc2nc3ccccc3c(=O)n2-c2ccc(Cl)cc2)cc1 | 45 µg/mL (≈ 102 µM) | 45 µg/mL (≈ 102 µM) | 40 µg/mL (≈ 90.7 µM) | 50 µg/mL (≈ 113 µM) | 45 µg/mL (≈ 102 µM) | 55 µg/mL (≈ 125 µM) | 75 µg/mL (≈ 170 µM) |
| Nc1ccc(S(=O)(=O)NCc2nc3ccccc3c(=O)n2-c2cccc(Br)c2)cc1 | 50 µg/mL (≈ 103 µM) | 50 µg/mL (≈ 103 µM) | 40 µg/mL (≈ 82.4 µM) | 55 µg/mL (≈ 113 µM) | 45 µg/mL (≈ 92.7 µM) | 60 µg/mL (≈ 124 µM) | 75 µg/mL (≈ 155 µM) |
| Nc1ccc(S(=O)(=O)NCc2nc3ccccc3c(=O)n2-c2ccc(Br)cc2)cc1 | 50 µg/mL (≈ 103 µM) | 55 µg/mL (≈ 113 µM) | 45 µg/mL (≈ 92.7 µM) | 50 µg/mL (≈ 103 µM) | 55 µg/mL (≈ 113 µM) | 65 µg/mL (≈ 134 µM) | 75 µg/mL (≈ 155 µM) |
| CC1(C)S[C@@H]2[C@H](NC(=O)[C@H](N)c3ccccc3)C(=O)N2[C@H]1C(=O)O [AMPICILLIN] | 50 µg/mL (≈ 143 µM) | 45 µg/mL (≈ 129 µM) | – | 55 µg/mL (≈ 157 µM) | – | 60 µg/mL (≈ 172 µM) | 85 µg/mL (≈ 243 µM) |
| CC(=O)N1CCN(c2ccc(OCC3COC(Cn4ccnc4)(c4ccc(Cl)cc4Cl)O3)cc2)CC1 (stereo unspecified) [KETOCONAZOLE] | – | – | 40 µg/mL (≈ 75.3 µM) | – | 50 µg/mL (≈ 94.1 µM) | – | – |
